In assay [1] the target is T1, cGMP-dependent protein kinase 2 (Homo sapiens) (UniProt Q13237).
T1 sequence (whole entry): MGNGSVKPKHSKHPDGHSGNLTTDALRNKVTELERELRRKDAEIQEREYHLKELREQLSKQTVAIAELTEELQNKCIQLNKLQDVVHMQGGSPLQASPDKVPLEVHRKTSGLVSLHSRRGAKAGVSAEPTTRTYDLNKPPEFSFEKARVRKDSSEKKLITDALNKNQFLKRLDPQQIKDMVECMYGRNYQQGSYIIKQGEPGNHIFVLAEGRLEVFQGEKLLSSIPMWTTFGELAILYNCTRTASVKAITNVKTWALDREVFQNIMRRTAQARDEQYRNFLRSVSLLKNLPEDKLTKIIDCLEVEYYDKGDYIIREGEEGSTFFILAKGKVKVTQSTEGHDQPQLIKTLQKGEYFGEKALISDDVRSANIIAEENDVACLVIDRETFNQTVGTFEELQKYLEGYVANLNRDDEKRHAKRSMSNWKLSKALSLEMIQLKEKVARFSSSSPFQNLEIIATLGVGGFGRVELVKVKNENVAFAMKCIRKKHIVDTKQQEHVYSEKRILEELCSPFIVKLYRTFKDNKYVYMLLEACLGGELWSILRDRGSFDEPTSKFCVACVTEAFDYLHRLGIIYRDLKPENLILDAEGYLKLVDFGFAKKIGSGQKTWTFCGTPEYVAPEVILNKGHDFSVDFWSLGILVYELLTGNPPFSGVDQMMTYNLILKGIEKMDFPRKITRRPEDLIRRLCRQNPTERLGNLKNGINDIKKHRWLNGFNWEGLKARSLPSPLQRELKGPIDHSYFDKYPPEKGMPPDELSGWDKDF
In words: Selectivity interaction (KinomeScan (DiscoverX)) EUB0000092b PRKG2. As to conditions: at 10 µM.

Assay [2] deals with T2, Mitogen-activated protein kinase kinase kinase 5 (Homo sapiens) (UniProt Q99683).
T2 sequence (whole entry): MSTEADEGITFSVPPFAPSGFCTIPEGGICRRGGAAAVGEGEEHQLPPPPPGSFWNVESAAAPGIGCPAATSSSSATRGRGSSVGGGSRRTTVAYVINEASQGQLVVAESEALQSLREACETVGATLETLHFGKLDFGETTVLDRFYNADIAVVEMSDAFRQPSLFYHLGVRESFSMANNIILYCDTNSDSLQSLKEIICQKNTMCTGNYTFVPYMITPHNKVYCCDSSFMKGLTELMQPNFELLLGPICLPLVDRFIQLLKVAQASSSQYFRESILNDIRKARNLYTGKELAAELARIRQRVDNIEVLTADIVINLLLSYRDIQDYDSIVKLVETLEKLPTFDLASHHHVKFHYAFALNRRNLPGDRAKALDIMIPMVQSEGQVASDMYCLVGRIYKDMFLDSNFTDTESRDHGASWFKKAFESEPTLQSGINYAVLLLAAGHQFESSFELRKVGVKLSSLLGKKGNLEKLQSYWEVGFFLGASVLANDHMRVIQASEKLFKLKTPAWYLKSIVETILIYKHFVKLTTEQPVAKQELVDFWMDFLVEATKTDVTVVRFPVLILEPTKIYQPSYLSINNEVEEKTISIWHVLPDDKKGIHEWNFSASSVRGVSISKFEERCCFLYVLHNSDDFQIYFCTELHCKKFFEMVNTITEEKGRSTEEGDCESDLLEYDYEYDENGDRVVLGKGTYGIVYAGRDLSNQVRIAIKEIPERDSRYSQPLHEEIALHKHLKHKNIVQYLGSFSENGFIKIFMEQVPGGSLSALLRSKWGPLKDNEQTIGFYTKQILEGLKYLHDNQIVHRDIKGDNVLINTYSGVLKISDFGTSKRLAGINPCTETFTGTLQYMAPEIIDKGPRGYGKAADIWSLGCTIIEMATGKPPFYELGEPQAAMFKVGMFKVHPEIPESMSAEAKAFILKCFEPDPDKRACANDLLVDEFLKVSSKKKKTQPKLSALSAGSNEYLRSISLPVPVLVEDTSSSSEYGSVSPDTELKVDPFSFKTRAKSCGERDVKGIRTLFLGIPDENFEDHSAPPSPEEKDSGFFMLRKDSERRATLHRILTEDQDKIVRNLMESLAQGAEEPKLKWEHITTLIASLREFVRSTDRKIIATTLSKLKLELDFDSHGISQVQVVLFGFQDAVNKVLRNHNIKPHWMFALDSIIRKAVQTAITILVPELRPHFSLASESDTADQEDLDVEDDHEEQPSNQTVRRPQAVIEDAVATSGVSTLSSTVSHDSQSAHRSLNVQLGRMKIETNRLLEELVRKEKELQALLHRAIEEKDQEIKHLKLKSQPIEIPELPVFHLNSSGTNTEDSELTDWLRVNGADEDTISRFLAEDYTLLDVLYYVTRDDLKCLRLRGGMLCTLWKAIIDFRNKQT
In words: Selectivity interaction (KinomeScan (DiscoverX)) EUB0000092b MAP3K5. The following applies: at 10 µM.

For assay [3], the target named is Serine/threonine-protein kinase 10 (Homo sapiens) (UniProt O94804). In words: Selectivity interaction (ActivX KiNativ screen (kinase selectivity in THP-1 cell lysates)) EUB0000639a STK10. As to conditions: lysate, at 1 µM. It is filed as subcellular.
Sequence of Serine/threonine-protein kinase 10 (Homo sapiens) (O94804 whole entry, looked up): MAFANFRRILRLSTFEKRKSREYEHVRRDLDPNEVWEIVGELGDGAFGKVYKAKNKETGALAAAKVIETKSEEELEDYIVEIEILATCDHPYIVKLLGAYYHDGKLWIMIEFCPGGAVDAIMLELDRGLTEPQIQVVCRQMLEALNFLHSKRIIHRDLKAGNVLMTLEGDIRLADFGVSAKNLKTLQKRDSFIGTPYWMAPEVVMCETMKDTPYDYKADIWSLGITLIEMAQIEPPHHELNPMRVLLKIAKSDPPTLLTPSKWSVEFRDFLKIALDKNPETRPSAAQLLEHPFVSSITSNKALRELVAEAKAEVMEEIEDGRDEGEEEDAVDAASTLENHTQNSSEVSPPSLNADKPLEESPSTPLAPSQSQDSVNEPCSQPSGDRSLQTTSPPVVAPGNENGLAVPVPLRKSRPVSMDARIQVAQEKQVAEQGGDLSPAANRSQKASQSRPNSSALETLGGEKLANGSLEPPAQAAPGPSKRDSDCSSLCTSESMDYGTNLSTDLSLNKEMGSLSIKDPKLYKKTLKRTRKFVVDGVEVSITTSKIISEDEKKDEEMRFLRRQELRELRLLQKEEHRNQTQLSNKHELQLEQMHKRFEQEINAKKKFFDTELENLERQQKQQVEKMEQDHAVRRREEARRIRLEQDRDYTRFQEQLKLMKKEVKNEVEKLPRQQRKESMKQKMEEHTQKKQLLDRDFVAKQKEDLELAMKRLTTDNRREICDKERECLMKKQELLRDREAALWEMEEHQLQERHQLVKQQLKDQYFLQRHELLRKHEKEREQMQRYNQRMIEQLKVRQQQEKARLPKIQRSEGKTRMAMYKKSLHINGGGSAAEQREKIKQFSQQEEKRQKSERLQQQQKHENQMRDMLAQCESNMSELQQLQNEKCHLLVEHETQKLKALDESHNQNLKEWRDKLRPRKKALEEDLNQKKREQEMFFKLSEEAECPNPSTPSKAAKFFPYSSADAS
The target of assay [4] is Serine/threonine-protein kinase MRCK gamma (Homo sapiens) (UniProt Q6DT37). Briefly: Selectivity interaction (KinomeScan (DiscoverX)) EUB0000618a CDC42BPG. As to conditions: at 10 µM.
Sequence of Serine/threonine-protein kinase MRCK gamma (Homo sapiens) (Q6DT37 whole entry): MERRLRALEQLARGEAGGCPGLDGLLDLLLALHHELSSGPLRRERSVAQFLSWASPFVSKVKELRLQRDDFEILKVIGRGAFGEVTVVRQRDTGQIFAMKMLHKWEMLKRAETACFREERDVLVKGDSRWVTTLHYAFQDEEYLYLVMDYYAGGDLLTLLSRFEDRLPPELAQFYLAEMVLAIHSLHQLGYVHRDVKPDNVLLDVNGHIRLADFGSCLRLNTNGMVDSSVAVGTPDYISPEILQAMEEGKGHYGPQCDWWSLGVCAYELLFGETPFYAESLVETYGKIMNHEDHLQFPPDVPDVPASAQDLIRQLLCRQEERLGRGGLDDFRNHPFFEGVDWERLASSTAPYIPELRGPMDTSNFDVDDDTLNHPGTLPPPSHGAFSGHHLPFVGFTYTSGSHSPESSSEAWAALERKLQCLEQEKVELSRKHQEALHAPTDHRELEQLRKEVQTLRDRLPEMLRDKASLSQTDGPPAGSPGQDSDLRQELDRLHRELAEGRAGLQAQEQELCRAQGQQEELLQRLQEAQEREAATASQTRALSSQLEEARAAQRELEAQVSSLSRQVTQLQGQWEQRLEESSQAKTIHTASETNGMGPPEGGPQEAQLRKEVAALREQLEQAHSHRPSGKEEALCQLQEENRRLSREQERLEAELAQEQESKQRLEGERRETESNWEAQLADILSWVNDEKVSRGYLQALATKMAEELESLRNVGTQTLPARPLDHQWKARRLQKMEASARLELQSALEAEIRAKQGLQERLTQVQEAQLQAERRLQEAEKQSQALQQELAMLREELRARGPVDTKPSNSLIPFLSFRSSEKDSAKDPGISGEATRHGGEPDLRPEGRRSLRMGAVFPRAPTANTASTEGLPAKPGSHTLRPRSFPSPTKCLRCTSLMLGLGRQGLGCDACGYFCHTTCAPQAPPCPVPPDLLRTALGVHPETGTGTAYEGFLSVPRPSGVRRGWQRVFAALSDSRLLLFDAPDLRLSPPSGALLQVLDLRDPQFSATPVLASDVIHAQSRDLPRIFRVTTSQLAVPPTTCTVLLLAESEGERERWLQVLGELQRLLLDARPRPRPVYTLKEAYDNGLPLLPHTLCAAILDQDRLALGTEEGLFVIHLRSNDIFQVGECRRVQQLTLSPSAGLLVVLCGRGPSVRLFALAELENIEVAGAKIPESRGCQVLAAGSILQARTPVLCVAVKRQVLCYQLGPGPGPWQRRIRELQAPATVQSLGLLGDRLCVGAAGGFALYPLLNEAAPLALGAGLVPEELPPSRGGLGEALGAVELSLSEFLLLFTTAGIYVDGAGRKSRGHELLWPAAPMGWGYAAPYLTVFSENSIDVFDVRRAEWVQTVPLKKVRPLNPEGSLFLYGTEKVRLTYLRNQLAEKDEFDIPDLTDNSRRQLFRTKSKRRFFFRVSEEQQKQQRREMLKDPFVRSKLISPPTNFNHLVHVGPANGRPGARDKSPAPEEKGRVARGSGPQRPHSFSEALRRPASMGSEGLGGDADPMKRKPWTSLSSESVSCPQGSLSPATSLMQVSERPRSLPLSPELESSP

As for `CCC(=O)N1CCN(c2ccc(-n3c(=O)ccc4cnc5ccc(-c6cnc7ccccc7c6)cc5c43)cc2C(F)(F)F)CC1`, the % of control worked out at 78% in assay [1] and 100% in assay [2].

In the case of `CC[C@@H]1[C@H](F)C(=O)N[C@@H]1COc1nccc2cc(C(N)=O)c(OC)cc12` [ZIMLOVISERTIB], the % of inhibition in assay [3] was -16.6%.

`O[C@H]1CC[C@H](Nc2ncc3nc(Nc4c(F)cc(F)cc4F)n([C@H]4CCOC4)c3n2)CC1` returned a % of control in assay [4] of 81%.
